{"source": "patent US12606523B2", "about": "“Deuterated organic compounds and uses thereof” (ENGRAIL THERAPEUTICS, INC., priority 2022, dated 2026)", "key": {"Sprague Dawley rats [1]": {"test_system": "Sprague Dawley rats", "assay": "Conditioned Avoidance Response test", "conditions": "rat", "from_the_text": "(§1) The Conditioned Avoidance Response (CAR) Test is an animal model screening for antipsychotic drugs."}, "Sprague Dawley rats [2]": {"test_system": "Sprague Dawley rats", "assay": "DOI-induced headshake response", "format": "in vivo", "conditions": "rat", "protocol": "Adult male Sprague Dawley rats are used. […] DOI (3 mg/kg) is dissolved in saline and administered IP at a dose volume of 1 ml/kg (10 minutes prior to test). Ketanserin (1 mg/kg) is dissolved in saline and injected IP 30 minutes prior to DOI at a dose volume of […].\nRats are then injected with DOI and headshakes are recorded 10 minutes after DOI injection for 10 minutes using video cameras. The headshake response is a rapid, rhythmic shaking of the head in a radial motion. Data is analyzed by ANOVA followed by post hoc analysis where appropriate."}, "[3]": {"molecular_target": "T1, human Serotonin 5-HT2A receptor (Homo sapiens, UniProt P28223)", "T1 sequence (P28223 whole entry)": "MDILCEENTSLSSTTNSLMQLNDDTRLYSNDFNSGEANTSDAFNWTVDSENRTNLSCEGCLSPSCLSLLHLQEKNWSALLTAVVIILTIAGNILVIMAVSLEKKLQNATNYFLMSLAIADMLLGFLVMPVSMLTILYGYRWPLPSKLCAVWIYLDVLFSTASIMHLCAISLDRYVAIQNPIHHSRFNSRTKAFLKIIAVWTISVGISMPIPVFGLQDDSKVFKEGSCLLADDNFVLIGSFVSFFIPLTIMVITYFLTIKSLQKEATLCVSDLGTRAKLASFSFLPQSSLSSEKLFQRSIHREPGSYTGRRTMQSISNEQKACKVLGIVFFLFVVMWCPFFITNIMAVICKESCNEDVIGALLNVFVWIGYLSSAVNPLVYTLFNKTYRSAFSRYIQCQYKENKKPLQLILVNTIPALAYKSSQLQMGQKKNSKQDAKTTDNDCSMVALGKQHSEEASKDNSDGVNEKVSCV", "conditions": "IP-one; % of reference agonist at EC100", "method": "(§2) SPA ^35S-GTPgS experiments are conducted with membrane preparations. IP-One and cAMP HTRF assays are conducted with recombinant cell lines.\n(§3) Agonist activity of test compounds is expressed as a percentage of the activity of the reference agonist at its EC100 concentration. Antagonist activity of the test compound is expressed as a percentage of the inhibition of reference agonist activity at its EC80 concentration."}, "[4]": {"molecular_target": "T2, human Serotonin 5-HT1A receptor (Homo sapiens, UniProt P08908)", "T2 sequence (P08908 1-422)": "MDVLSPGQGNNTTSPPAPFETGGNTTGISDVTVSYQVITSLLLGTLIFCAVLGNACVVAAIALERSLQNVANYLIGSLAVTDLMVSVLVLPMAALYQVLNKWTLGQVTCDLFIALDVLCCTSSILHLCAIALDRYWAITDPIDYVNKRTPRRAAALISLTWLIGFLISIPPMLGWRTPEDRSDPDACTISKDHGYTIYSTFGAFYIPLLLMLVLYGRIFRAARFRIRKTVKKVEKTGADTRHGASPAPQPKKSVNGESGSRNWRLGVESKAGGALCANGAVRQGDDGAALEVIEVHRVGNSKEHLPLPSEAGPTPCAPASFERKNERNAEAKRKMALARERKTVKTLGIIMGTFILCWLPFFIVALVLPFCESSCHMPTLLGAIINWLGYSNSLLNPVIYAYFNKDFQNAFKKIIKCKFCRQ", "conditions": "cAMP; % of reference agonist at EC100", "method": "as §2, §3"}, "Sprague Dawley rats [5]": {"test_system": "Sprague Dawley rats", "assay": "Headshake response", "format": "in vivo, rat", "protocol": "Adult male Sprague Dawley rats are used. […] DOI (3 mg/kg) is dissolved in saline and administered IP at a dose volume of 1 ml/kg (10 minutes prior to test).\nThe headshake response is a rapid, rhythmic shaking of the head in a radial motion. Data are analyzed by ANOVA followed by post hoc analysis where appropriate."}, "[6]": {"molecular_target": "T3, human Serotonin 5-HT7A receptor (Homo sapiens, UniProt P34969)", "T3 construct": "expressed in transfected cells; host or cells: CHO-K1", "T3 sequence (P34969 1-445 isoform P34969-2)": "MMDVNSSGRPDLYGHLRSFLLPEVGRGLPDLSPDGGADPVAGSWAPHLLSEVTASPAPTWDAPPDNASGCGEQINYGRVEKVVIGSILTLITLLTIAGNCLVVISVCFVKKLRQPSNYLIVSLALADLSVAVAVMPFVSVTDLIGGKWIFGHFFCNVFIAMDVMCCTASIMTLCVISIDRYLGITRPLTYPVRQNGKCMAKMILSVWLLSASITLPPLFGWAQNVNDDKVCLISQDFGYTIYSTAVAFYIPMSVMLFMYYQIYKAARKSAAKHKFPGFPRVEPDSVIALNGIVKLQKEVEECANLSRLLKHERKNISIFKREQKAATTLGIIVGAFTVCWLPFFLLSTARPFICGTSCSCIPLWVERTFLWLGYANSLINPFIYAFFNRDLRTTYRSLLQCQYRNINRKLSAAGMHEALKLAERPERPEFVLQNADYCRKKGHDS", "assay": "cAMP HTRF functional assay, antagonist mode", "format": "cell-based"}, "Sprague Dawley rats [7]": {"test_system": "Sprague Dawley rats", "assay": "Touchscreen-based rat Probabilistic Reward Task", "format": "in vivo", "from_the_text": "The Probabilistic Reward Task (PRT) uses visual discrimination methodology to quantify reward responsiveness to both identify deficits and characterize drug-induced improvements.\nMale Sprague Dawley rats are used in the present study.\nBriefly, a custom-built Plexiglas chamber (25×30×35 cm) is situated in a sound- and light-attenuating enclosure (40×60×45 cm). A 17″ touch-sensitive screen (1739L, ELO TouchSystems, Menlo Park, CA) comprises the inside right-hand wall of the enclosure. An infusion pump (PHM-100-5, Med Associates, St. Albans, VT) outside the enclosure is used to deliver sweetened condensed milk solution into the shallow reservoir of a custom-designed aluminum receptacle. The receptacle is mounted 3 cm above the floor bars and centered on the left-hand inside wall. Both touchscreen and fluid reservoir are easily accessible to the subject. A speaker bar (NQ576AT, Hewlett-Packard, Palo Alto, CA) mounted above the touchscreen is used to emit audible feedback. All experimental events and data collection are programmed in E-Prime Professional 2.0 (Psychology Software Tools, Inc., Sharpsburg, PA). […]\nFollowing line-length discrimination training, probabilistic reinforcement schedules are introduced. […] These probabilistic contingencies are assessed across 5 consecutive sessions prior to initiation of drug testing. […]"}, "[8]": {"molecular_target": "T3, human Serotonin 5-HT7A receptor", "assay": "Radioligand binding competition, filtration, [3H]-LSD, CHO-K1 membranes"}, "[9]": {"molecular_target": "human Dopamine D2L receptor (Homo sapiens, UniProt P14416)", "sequence (P14416 whole entry)": "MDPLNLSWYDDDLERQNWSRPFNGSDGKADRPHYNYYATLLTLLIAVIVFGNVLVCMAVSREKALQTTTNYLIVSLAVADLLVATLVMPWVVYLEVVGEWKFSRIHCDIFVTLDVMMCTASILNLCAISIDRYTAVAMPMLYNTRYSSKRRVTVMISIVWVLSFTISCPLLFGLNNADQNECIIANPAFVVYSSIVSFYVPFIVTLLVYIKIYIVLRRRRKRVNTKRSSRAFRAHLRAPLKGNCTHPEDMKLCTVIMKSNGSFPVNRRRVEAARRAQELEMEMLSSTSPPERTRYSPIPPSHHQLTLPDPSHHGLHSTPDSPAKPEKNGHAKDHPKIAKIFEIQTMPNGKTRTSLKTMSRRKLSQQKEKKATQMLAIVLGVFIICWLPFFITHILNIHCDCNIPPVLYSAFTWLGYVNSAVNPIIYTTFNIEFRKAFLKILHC", "conditions": "cAMP, % inhibition of reference agonist at EC80", "method": "as §2, §3"}, "5-HT1A": {"molecular_target": "T4, 5-HT1A (Homo sapiens, UniProt P08908)", "T4 sequence (P08908 1-422)": "T2 sequence (P08908 1-422)", "assay": "Functional assay, antagonist mode (Table 6)", "format": "cell-based", "conditions": "read-out: 5-HT1A (antagonist mode) Emax"}, "5-HT2B": {"molecular_target": "5-HT2B (Homo sapiens, UniProt P41595)", "sequence (P41595 whole entry)": "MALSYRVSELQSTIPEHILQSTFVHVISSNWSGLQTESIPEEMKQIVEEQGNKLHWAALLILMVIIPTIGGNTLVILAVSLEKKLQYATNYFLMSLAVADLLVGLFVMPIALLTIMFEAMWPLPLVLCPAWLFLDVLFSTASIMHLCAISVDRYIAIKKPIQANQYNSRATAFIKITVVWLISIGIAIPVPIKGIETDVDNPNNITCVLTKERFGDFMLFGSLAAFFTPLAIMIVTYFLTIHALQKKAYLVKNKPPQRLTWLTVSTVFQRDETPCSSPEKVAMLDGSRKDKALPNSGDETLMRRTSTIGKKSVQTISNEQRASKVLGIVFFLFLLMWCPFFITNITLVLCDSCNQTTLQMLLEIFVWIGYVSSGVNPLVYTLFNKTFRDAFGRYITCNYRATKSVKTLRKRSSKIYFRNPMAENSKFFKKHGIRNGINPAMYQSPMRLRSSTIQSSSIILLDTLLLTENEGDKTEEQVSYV", "assay": "Functional assay, antagonist mode (Table 6)", "format": "cell-based"}, "Sprague Dawley rats [10]": {"test_system": "Sprague Dawley rats", "conditions": "rat, in vivo, po, 5 mg/kg", "from_the_text": "as §1"}, "[11]": {"molecular_target": "T5, human Dopamine D4.4 receptor (Homo sapiens, UniProt P21917)", "T5 sequence (P21917 1-419)": "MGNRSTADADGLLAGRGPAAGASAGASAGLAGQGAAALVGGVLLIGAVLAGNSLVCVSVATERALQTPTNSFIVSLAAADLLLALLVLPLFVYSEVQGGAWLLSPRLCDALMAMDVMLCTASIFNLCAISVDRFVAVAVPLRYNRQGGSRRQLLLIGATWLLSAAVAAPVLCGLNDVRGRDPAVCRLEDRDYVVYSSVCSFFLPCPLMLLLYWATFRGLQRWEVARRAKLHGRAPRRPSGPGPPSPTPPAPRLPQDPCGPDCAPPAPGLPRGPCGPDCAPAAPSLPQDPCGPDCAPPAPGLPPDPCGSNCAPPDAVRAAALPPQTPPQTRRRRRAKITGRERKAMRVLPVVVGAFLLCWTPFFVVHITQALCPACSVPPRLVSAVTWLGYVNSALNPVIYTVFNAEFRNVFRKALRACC", "conditions": "cAMP; % inhibition of reference agonist at EC80", "method": "as §2, §3"}, "[12]": {"molecular_target": "human Dopamine D2S receptor (Homo sapiens, UniProt P14416)", "sequence (P14416 1-414 isoform P14416-2)": "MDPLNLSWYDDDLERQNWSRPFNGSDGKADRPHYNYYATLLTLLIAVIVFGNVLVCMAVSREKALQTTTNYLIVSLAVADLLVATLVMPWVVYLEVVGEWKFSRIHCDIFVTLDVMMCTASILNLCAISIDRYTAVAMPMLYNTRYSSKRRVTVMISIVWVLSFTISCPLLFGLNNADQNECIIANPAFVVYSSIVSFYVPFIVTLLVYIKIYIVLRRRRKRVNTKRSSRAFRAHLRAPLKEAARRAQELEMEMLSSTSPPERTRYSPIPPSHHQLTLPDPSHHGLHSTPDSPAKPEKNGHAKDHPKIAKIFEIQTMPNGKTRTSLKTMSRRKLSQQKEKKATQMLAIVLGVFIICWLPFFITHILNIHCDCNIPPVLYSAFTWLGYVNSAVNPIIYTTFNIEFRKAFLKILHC", "conditions": "cAMP, % inhibition of reference agonist at EC80", "method": "(§4) IP-One and cAMP HTRF assays are conducted with recombinant cell lines.\nas §3"}, "[13]": {"molecular_target": "T1, human Serotonin 5-HT2A receptor", "assay": "IP-One HTRF functional assay, antagonist mode", "format": "cell-based", "set-up": "expressed in transfected cells; host or cells: CHO-K1", "conditions": "% inhibition of reference agonist at EC80", "method": "as §4, §3"}, "[14]": {"molecular_target": "human Dopamine D3 receptor (Homo sapiens, UniProt P35462)", "sequence (P35462 whole entry)": "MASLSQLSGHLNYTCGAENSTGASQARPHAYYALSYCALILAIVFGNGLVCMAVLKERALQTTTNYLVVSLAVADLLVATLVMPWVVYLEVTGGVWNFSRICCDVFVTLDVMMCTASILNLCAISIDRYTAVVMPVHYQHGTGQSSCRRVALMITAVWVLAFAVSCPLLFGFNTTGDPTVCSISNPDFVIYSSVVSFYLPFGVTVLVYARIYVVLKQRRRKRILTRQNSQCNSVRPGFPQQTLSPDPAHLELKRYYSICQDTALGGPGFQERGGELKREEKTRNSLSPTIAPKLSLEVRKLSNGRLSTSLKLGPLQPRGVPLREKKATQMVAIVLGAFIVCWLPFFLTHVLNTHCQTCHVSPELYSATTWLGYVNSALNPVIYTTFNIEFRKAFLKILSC", "conditions": "GTPγS; % inhibition of reference agonist at EC80", "method": "as §2, §3"}, "[15]": {"conditions": "0.5 mg/kg i.p. 30 minutes prior to test"}, "[16]": {"conditions": "2.5 and 5 mg/kg orally 4 hours prior to test"}}}
{"compound": "Cc1nc2n(c(=O)c1CCN1CCC(c3noc4cc(F)ccc34)CC1)CCCC2", "note": "[risperidone, Risperidone, reference compound]", "values": [{"measurement": "number of avoidance responses compared to vehicle", "setting": "Sprague Dawley rats [1]; [15]", "result": "significantly decrease"}, {"measurement": "percent avoidance compared to vehicle", "setting": "Sprague Dawley rats [1]; [15]", "result": "significantly decrease"}]}
{"compound": "O=C(c1ccc(F)cc1)C1CCN(CCn2c(=O)[nH]c3ccccc3c2=O)CC1", "note": "[Ketanserin, reference compound]", "values": [{"measurement": "DOI-induced headshake responses", "setting": "Sprague Dawley rats [2]; 1 mg/kg IP 30 minutes prior to DOI 3 mg/kg IP", "result": "decrease"}]}
{"compound": "CNc1cc(OC)c(C(=O)N[C@H]2CCN(Cc3ccccc3)[C@H]2C)cc1Cl", "note": "(racemic) [Nemonapride, (±)-cis-N-(1-Benzyl-2-methylpyrrolidin-3-yl)-5-chloro-2-methoxy-4-methylaminobenzamide]", "values": [{"measurement": "5-HT2A (agonist mode) Top % Activation at maximal concentration", "setting": "[3]", "result": "IP-one 48%"}, {"measurement": "5-HT1A (agonist mode) Top % Activation at maximal concentration", "setting": "[4]", "result": "cAMP 52%"}]}
{"compound": "[2H]C([2H])([2H])Nc1cc(OC)c(C(=O)N[C@H]2CCN(C([2H])([2H])c3ccccc3)[C@H]2C)cc1Cl", "note": "[Example A1, 5-Chloro-N-((2S,3S)-1-(dideutero(phenyl)methyl)-2-methylpyrrolidin-3-yl)-2-methoxy-4-(trideuteromethylamino)benzamide]", "values": [{"measurement": "number of headshakes compared to vehicle", "setting": "Sprague Dawley rats [5]; rat, 1, 5 and 10 mg/kg PO 4 hours prior to test", "result": "no significant increase"}, {"measurement": "IC50", "setting": "[6]", "result": 2240, "unit": "nM"}, {"measurement": "log b vs vehicle, Cohen's d", "setting": "Sprague Dawley rats [7]; 0.5 mg/kg orally, n=8, paired t-test p=0.006", "result": 1.21}, {"measurement": "log b vs vehicle, Cohen's d", "setting": "Sprague Dawley rats [7]; 1 mg/kg orally, n=8, paired t-test p=0.04", "result": 0.75}, {"measurement": "number of avoidance responses compared to vehicle", "setting": "Sprague Dawley rats [1]; [16]", "result": "significantly decrease"}, {"measurement": "percent avoidance compared to vehicle", "setting": "Sprague Dawley rats [1]; [16]", "result": "significantly decrease"}, {"measurement": "Ki", "setting": "[8]", "result": 74.4, "unit": "nM"}, {"measurement": "D2 (antagonist mode) Top % Inhibition at maximal concentration, D2L", "setting": "[9]", "result": "cAMP 81 (D2L) %"}, {"measurement": "Emax", "setting": "5-HT1A", "result": 63, "unit": "%"}, {"measurement": "Emax", "setting": "5-HT2B", "result": 92, "unit": "%"}, {"measurement": "escape failures compared to vehicle", "setting": "Sprague Dawley rats [10]", "result": "increase"}, {"measurement": "DOI-induced headshake responses", "setting": "Sprague Dawley rats [2]; 1 mg/kg PO 4 hours prior, DOI 3 mg/kg IP, p=0.051", "result": "non-significant trend to decreasing"}, {"measurement": "DOI-induced headshake responses", "setting": "Sprague Dawley rats [2]; 5 and 10 mg/kg PO 4 hours prior, DOI 3 mg/kg IP", "result": "decrease"}]}
{"compound": "CNc1cc(OC)c(C(=O)N[C@H]2CCN(Cc3ccccc3)[C@H]2C)cc1Cl", "note": "[cis (S,S) nemonapride, N-[(2S,3S)-1-benzyl-2-methylpyrrolidin-3-yl]-5-chloro-2-methoxy-4-(methylamino)benzamide]", "values": [{"measurement": "D4 (antagonist mode) Top % Inhibition at maximal concentration", "setting": "[11]", "result": "cAMP 67%"}, {"measurement": "D2 (antagonist mode) Top % Inhibition at maximal concentration, D2S", "setting": "[12]", "result": "cAMP 88 (D2S) %"}, {"measurement": "5-HT2A (agonist mode) Top % Activation at maximal concentration", "setting": "[3]", "result": "IP-one 29%"}, {"measurement": "IC50", "setting": "[8]", "result": 167, "unit": "nM"}, {"measurement": "Ki", "setting": "[8]", "result": 117, "unit": "nM"}, {"measurement": "D2 (antagonist mode) Top % Inhibition at maximal concentration, D2L", "setting": "[9]", "result": "cAMP 84 (D2L) %"}, {"measurement": "5-HT1A (agonist mode) Top % Activation at maximal concentration", "setting": "[4]", "result": "cAMP 17%"}, {"measurement": "5-HT2A (antagonist mode) Top % Inhibition at maximal concentration", "setting": "[13]", "result": "IP-one 52%"}, {"measurement": "D3 (antagonist mode) Top % Inhibition at maximal concentration", "setting": "[14]", "result": "GTPγS 117%"}]}
{"compound": "COc1cc(CC(C)N)c(OC)cc1I", "note": "(centres unmarked) [DOI, reference compound]", "values": [{"measurement": "number of headshakes compared to vehicle", "setting": "Sprague Dawley rats [5]; rat, 3 mg/kg IP 10 minutes prior to test", "result": "significantly increases"}, {"measurement": "number of headshakes compared to vehicle", "setting": "Sprague Dawley rats [2]; DOI 3 mg/kg IP", "result": "significantly increases"}]}
